Laboratory results: PMC8035250 (ChemMedChem, 2021)
Values after ≈ are worked out from the molar mass of the structure shown.

How the values were obtained:
[1] = previously reported; ref 14b; cited from earlier work
[2] = test system: monocytes, MSCs, or mature osteoclasts; conditions: even at a concentration of 10 μM; ref manuscript submitted; cited from earlier work
[3] = ref 14b, cited from earlier work
[4] = previously reported; ref 14b; cited from earlier work; remark: listed apart in the source
[5] = previously reported; ref 14b; cited from earlier work; remark: listed apart in the source
[6] = test system: osteoclastogenesis; assay: In vitro osteoclast differentiation assay; type: cell-based, mice; conditions: 10 μM inhibitor, rM-CSF and RANKL, 5–7 d
[7] = cited from earlier work
[8] = test system: MDA-MB-231 breast cancer xenograft; conditions: cited from earlier work

CNC(=O)[C@@H](NC(=O)c1ccc(-c2ccc(CSc3nc4c(c(=O)[nH]3)CCC4)c(F)c2)o1)C(C)C [RF036]
Human microsome half-life [1]: 12 min
Toxicity towards monocytes, MSCs, or mature osteoclasts [2]: not due to the compound being toxic
Solubility ([3]; converted from […] with MW 499.17 g/mol): 7.74 µg/mL (≈ 15.5 µM)
Solubility class in words ([3]; poor defined as <10 μg/mL or <20 μM): poor solubility
Rat microsome half-life [4]: 9 min
Mouse microsome half-life [5]: 20 min
Osteoclastogenesis level compared with control [6]: 24%

COCCC1(Oc2ccc(Oc3ccc(-c4nc(-c5ccc(F)cc5)co4)cc3)cc2)C(=O)NC(=O)NC1=O [compound 28, 5-(4-{4-[4-(4-fluorophenyl)-1,3-oxazol-2-yl]phenoxy}phenoxy)-5-(2-methoxyethyl)-pyrimidine-2,4,6 (1H,3H,5H)-trione]
Creatine kinase (measure of muscle toxicity) [7]: did not cause an increase in creatine kinase
MDA-MB-231 breast cancer xenograft growth [8]: inhibited MDA-MB-231 breast cancer xenograft growth
Osteolytic damage ([8]; in vivo prevention study): significantly reduced osteolytic damage
